Measurements taken from patent US9925232B2, “Methods and compositions comprising desmopressin in combination with a 5-alpha reductase inhibitor” (Serenity Pharmaceuticals LLC, priority 2013, dated 2018).

Tests used:
[1] = system: patients experiencing on average at least two nocturnal voids per night; assay: Clinical study: reduction in the average number of nocturnal voids (Responder / Non-Responder); type: in vivo, human
Experimental: A clinical study was performed to evaluate the impact of administering desmopressin in combination with a 5-alpha reductase inhibitor alone or together with an alpha-adrenergic receptor antagonist to reduce the occurrence of nocturnal voiding by a patient. Experimental procedures and results are described below. […] Patients received as a nasal spray either (i) a 1.5 μg dosage of desmopressin or (ii) placebo. The desmopressin nasal spray (or placebo) was administered daily just prior to bedtime for a duration of twelve weeks. In addition, patients previously diagnosed as suffering from benign prostatic hyperplasia (BPH) and receiving a 5-alpha reductase inhibitor alone or together with an alpha-adrenergic receptor antagonist for treatment of BPH continued to receive the 5-alpha reductase inhibitor alone or together with the alpha-adrenergic receptor antagonist at the same dosage and frequency used prior to enrollment in this study. All patients in this study who received a 5-alpha reductase inhibitor alone or together with an alpha-adrenergic receptor antagonist for treatment of their BPH had been receiving the 5-alpha reductase inhibitor alone or together with the alpha-adrenergic receptor antagonist for at least 2 months before enrollment in this study and experienced on average at least two nocturnal voids per night before enrollment in this study. The desmopressin nasal spray was prepared by combining aliquots of an Emulsion Stock Solution and a Buffer Solution as described below. To produce the desmopressin nasal spray, aliquots of the 30 μg/mL solution were filtered to eliminate any bacterial contamination and diluted with an equal volume of emulsion stock solution to produce aseptic, preservative free dose forms comprising 15 μg/mL desmopressin, pH 5.5, containing 2% cyclopentadecanolide. These were bottled in sterile pump spray bottles fitted with a Pfeiffer APF pump sprayers that deliver 100 μL per metered spray (i.e., 1.5 μg desmopressin (i.e., 1500 ng desmopressin) per spray). The liquid contains no detectable microorganisms. Patients recorded the occurrence of nocturnal voids during the study period. Patients were designated to be a “Responder” if after receiving treatment there was a reduction in the average number of nocturnal voids during the treatment period.

[2] = human, in vivo; cited from earlier work
[3] = BPH patients receiving 5-alpha reductase inhibitor alone or together with alpha-adrenergic receptor antagonist, 1.5 μg nasal spray daily, twelve weeks, n = 14
[4] = BPH patients, second component none (no 5-alpha reductase inhibitor or alpha-adrenergic receptor antagonist), 1.5 μg nasal spray daily, twelve weeks, n = 42
[5] = BPH patients, alpha-adrenergic receptor antagonist and 5-alpha reductase inhibitor, 1.5 μg desmopressin nasal spray daily, twelve weeks, n = 14
[6] = BPH patients, second component 5-alpha reductase inhibitor, 1.5 μg desmopressin nasal spray daily prior to bedtime, twelve weeks, n = 14
[7] = male patients without BPH, second component none, 1.5 μg nasal spray daily, twelve weeks, n = 34

NC(=O)CC[C@@H]1NC(=O)[C@H](Cc2ccccc2)NC(=O)[C@H](Cc2ccc(O)cc2)NC(=O)CCSSC[C@@H](C(=O)N2CCC[C@H]2C(=O)N[C@H](CCCN=C(N)N)C(=O)NCC(N)=O)NC(=O)[C@H](CC(N)=O)NC1=O [Desmopressin, 1-desamino-8-D-arginine vasopressin]
Difference in Responder Response Rate Between Desmopressin-treated Patients & Those Receiving Placebo ([1]; BPH patients receiving 5-alpha reductase inhibitor alone or together with alpha-adrenergic receptor antagonist): 40%
Non-Responder Patients: Total Number of Patients that Received Desmopressin [1, 3]: 6
Percent Total Non-Responder Patients that Received Desmopressin [1, 3]: 43% (6/14)
Percent Total Responder Patients that Received Desmopressin (absolute response rate) [1, 3]: 57%
Responder Patients: Total Number of Patients that Received Desmopressin [1, 3]: 8
Difference in Responder Response Rate Between Desmopressin-treated Patients & Those Receiving Placebo ([1]; BPH patients receiving 5-alpha reductase inhibitor alone or together with alpha-adrenergic receptor antagonist, listed as desmopressin): 40%
Difference in Responder Response Rate Between Desmopressin-treated Patients & Those Receiving Placebo ([1]; BPH patients that did not receive a 5-alpha reductase inhibitor or an alpha-adrenergic receptor antagonist): 14%
Difference in Responder Response Rate Between Desmopressin-treated Patients & Those Receiving Placebo ([1]; BPH patients that did not receive a 5-alpha reductase inhibitor or an alpha-adrenergic receptor antagonist, listed as desmopressin): 14%
Non-Responder Patients: Number of Patients that Received Desmopressin [1, 4]: 24
Percent Total Non-Responder Patients that Received Desmopressin [1, 4]: 57%
Percent Total Responder Patients that Received Desmopressin (absolute response rate) [1, 4]: 43%
Responder Patients: Number of Patients that Received Desmopressin [1, 4]: 18
Percent Total Responder Patients that Received Desmopressin (absolute response rate) ([1]; BPH patients, second component none (no 5-alpha reductase inhibitor or alpha-adrenergic receptor antagonist), 1.5 μg nasal spray daily, twelve weeks, n = 42, listed as desmopressin): 43%
Non-Responder Patients: Number of Patients that Received Desmopressin [1, 5]: 2
Responder Patients: Number of Patients that Received Desmopressin [1, 5]: 5
Non-Responder Patients: Number of Patients that Received Desmopressin [1, 6]: 4
Responder Patients: Number of Patients that Received Desmopressin [1, 6]: 3
Difference in Responder Response Rate Between Desmopressin-treated Patients & Those Receiving Placebo ([1]; male patients not diagnosed with BPH, not receiving a 5-alpha reductase inhibitor or an alpha-adrenergic receptor antagonist): 18%
Difference in Responder Response Rate Between Desmopressin-treated Patients & Those Receiving Placebo ([1]; male patients not diagnosed with BPH, not receiving a 5-alpha reductase inhibitor or an alpha-adrenergic receptor antagonist, listed as desmopressin): 18%
Non-Responder Patients: Number of Patients that Received Desmopressin [1, 7]: 16
Percent Total Non-Responder Patients that Received Desmopressin [1, 7]: 47%
Percent Total Responder Patients that Received Desmopressin (absolute response rate) [1, 7]: 53%
Responder Patients: Number of Patients that Received Desmopressin [1, 7]: 18
Percent Total Responder Patients that Received Desmopressin (absolute response rate) ([1]; male patients without BPH, second component none, 1.5 μg nasal spray daily, twelve weeks, n = 34, listed as desmopressin): 53%
half-life (known clearance rate) [2]: 1.5 to 2.0 h
